{
  "source": "ChEMBL document CHEMBL1201862",
  "about": "“PubChem BioAssay data set” (2004)",
  "experiment_in_all_cases": "NCI tumour cell line growth inhibition, 48 h",
  "key": {"[1]": {"test_system": "786-0"}, "[2]": {"test_system": "A498"}, "[3]": {"test_system": "A549"}, "[4]": {"test_system": "ACHN"}, "[5]": {"test_system": "CAKI-1"}, "[6]": {"test_system": "CCRF-CEM"}, "[7]": {"test_system": "COLO 205"}, "[8]": {"test_system": "DMS-114"}, "[9]": {"test_system": "DMS-273"}, "[10]": {"test_system": "EKVX"}, "[11]": {"test_system": "HCC 2998"}, "[12]": {"test_system": "HCT-116"}, "[13]": {"test_system": "HCT-15"}, "[14]": {"test_system": "HL-60"}, "[15]": {"test_system": "HOP-18"}, "[16]": {"test_system": "HOP-92"}, "[17]": {"test_system": "HT-29"}, "[18]": {"test_system": "IGROV-1"}, "[19]": {"test_system": "K562"}, "[20]": {"test_system": "KM-20L2"}, "[21]": {"test_system": "KM12"}, "[22]": {"test_system": "LOX IMVI"}, "[23]": {"test_system": "LXFL 529"}, "[24]": {"test_system": "M14"}, "[25]": {"test_system": "MOLT-4"}, "[26]": {"test_system": "Malme-3M"}, "[27]": {"test_system": "NCI-H226"}, "[28]": {"test_system": "NCI-H23"}, "[29]": {"test_system": "NCI-H460"}, "[30]": {"test_system": "NCI-H522"}, "[31]": {"test_system": "OVCAR-4"}, "[32]": {"test_system": "OVCAR-5"}, "[33]": {"test_system": "OVCAR-8"}, "[34]": {"test_system": "RPMI-8226"}, "[35]": {"test_system": "RXF 393"}, "[36]": {"test_system": "RXF 631"}, "[37]": {"test_system": "SF-268"}, "[38]": {"test_system": "SF-295"}, "[39]": {"test_system": "SK-MEL-28"}, "[40]": {"test_system": "SK-MEL-2"}, "[41]": {"test_system": "SK-MEL-5"}, "[42]": {"test_system": "SK-OV-3"}, "[43]": {"test_system": "SN12C"}, "[44]": {"test_system": "SNB-19"}, "[45]": {"test_system": "SNB-75"}, "[46]": {"test_system": "SNB-78"}, "[47]": {"test_system": "SR"}, "[48]": {"test_system": "SW-620"}, "[49]": {"test_system": "TK-10"}, "[50]": {"test_system": "U-251"}, "[51]": {"test_system": "UACC-257"}, "[52]": {"test_system": "UACC-62"}, "[53]": {"test_system": "UO-31"}, "[54]": {"test_system": "XF498"}},
  "note": "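Values below derive from 48-hour exposures of cells grown in 96-well plates, with endpoints linearly interpolated between the two concentrations bracketing the appropriate inhibition level. At the GI50, growth is halved.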 The source made the active and inactive calls. Cut-off read from the data, not from the text of the source: active = GI50 up to about 1.1 µM and inactive = higher.",
  "data": [
    {"smiles": "COC(=O)C(C(=O)C(=O)Nc1c(C)cccc1C)c1cnc2ccccc2n1", "note": "(centres undefined)", "values": [
      {"measurement": "GI50", "setting": "[1]", "result": "> 100 µM (inactive)"},
      {"measurement": "GI50", "setting": "[2]", "result": "> 100 µM (inactive)"},
      {"measurement": "GI50", "setting": "[3]", "result": "> 100 µM (inactive)"},
      {"measurement": "GI50", "setting": "[4]", "result": "> 100 µM (inactive)"},
      {"measurement": "GI50", "setting": "[5]", "result": "> 100 µM (inactive)"},
      {"measurement": "GI50", "setting": "[6]", "result": "> 100 µM (inactive)"},
      {"measurement": "GI50", "setting": "[7]", "result": "> 100 µM (inactive)"},
      {"measurement": "GI50", "setting": "[8]", "result": "> 100 µM (inactive)"},
      {"measurement": "GI50", "setting": "[9]", "result": "> 100 µM (inactive)"},
      {"measurement": "GI50", "setting": "[10]", "result": "> 100 µM (inactive)"},
      {"measurement": "GI50", "setting": "[11]", "result": "> 100 µM (inactive)"},
      {"measurement": "GI50", "setting": "[12]", "result": "> 100 µM (inactive)"},
      {"measurement": "GI50", "setting": "[13]", "result": "> 100", "unit": "µM"},
      {"measurement": "GI50", "setting": "[14]", "result": "> 100 µM (inactive)"},
      {"measurement": "GI50", "setting": "[15]", "result": "> 100 µM (inactive)"},
      {"measurement": "GI50", "setting": "[16]", "result": "> 100 µM (inactive)"},
      {"measurement": "GI50", "setting": "[17]", "result": "> 100 µM (inactive)"},
      {"measurement": "GI50", "setting": "[18]", "result": "> 100 µM (inactive)"},
      {"measurement": "GI50", "setting": "[19]", "result": "> 100 µM (inactive)"},
      {"measurement": "GI50", "setting": "[20]", "result": "> 100 µM (inactive)"},
      {"measurement": "GI50", "setting": "[21]", "result": "> 100 µM (inactive)"},
      {"measurement": "GI50", "setting": "[22]", "result": "> 100 µM (inactive)"},
      {"measurement": "GI50", "setting": "[23]", "result": "> 100 µM (inactive)"},
      {"measurement": "GI50", "setting": "[24]", "result": "> 100 µM (inactive)"},
      {"measurement": "GI50", "setting": "[25]", "result": "> 100 µM (inactive)"},
      {"measurement": "GI50", "setting": "[26]", "result": "> 100 µM (inactive)"},
      {"measurement": "GI50", "setting": "[27]", "result": "> 100 µM (inactive)"},
      {"measurement": "GI50", "setting": "[28]", "result": "> 100 µM (inactive)"},
      {"measurement": "GI50", "setting": "[29]", "result": "> 100 µM (inactive)"},
      {"measurement": "GI50", "setting": "[30]", "result": "> 100 µM (inactive)"},
      {"measurement": "GI50", "setting": "[31]", "result": "> 100 µM (inactive)"},
      {"measurement": "GI50", "setting": "[32]", "result": "> 100 µM (inactive)"},
      {"measurement": "GI50", "setting": "[33]", "result": "> 100 µM (inactive)"},
      {"measurement": "GI50", "setting": "[34]", "result": "> 100 µM (inactive)"},
      {"measurement": "GI50", "setting": "[35]", "result": "> 100 µM (inactive)"},
      {"measurement": "GI50", "setting": "[36]", "result": "> 100 µM (inactive)"},
      {"measurement": "GI50", "setting": "[37]", "result": "> 100 µM (inactive)"},
      {"measurement": "GI50", "setting": "[38]", "result": "> 100 µM (inactive)"},
      {"measurement": "GI50", "setting": "[39]", "result": "> 100 µM (inactive)"},
      {"measurement": "GI50", "setting": "[40]", "result": "> 100 µM (inactive)"},
      {"measurement": "GI50", "setting": "[41]", "result": "> 100 µM (inactive)"},
      {"measurement": "GI50", "setting": "[42]", "result": "> 100 µM (inactive)"},
      {"measurement": "GI50", "setting": "[43]", "result": "> 100 µM (inactive)"},
      {"measurement": "GI50", "setting": "[44]", "result": "> 100 µM (inactive)"},
      {"measurement": "GI50", "setting": "[45]", "result": "> 100 µM (inactive)"},
      {"measurement": "GI50", "setting": "[46]", "result": "> 100 µM (inactive)"},
      {"measurement": "GI50", "setting": "[47]", "result": "> 100 µM (inactive)"},
      {"measurement": "GI50", "setting": "[48]", "result": "> 100 µM (inactive)"},
      {"measurement": "GI50", "setting": "[49]", "result": "> 100 µM (inactive)"},
      {"measurement": "GI50", "setting": "[50]", "result": "> 100 µM (inactive)"},
      {"measurement": "GI50", "setting": "[51]", "result": "> 100 µM (inactive)"},
      {"measurement": "GI50", "setting": "[52]", "result": "> 100 µM (inactive)"},
      {"measurement": "GI50", "setting": "[53]", "result": "> 100 µM (inactive)"},
      {"measurement": "GI50", "setting": "[54]", "result": "> 100 µM (inactive)"}
    ]}
  ]
}
